These results are taken from ChEMBL document CHEMBL1152407, “Identification of inhibitors of checkpoint kinase 1 through template screening” (J Med Chem, 2009).

The target of experiment [1] is T1, Serine/threonine-protein kinase Chk1 (Homo sapiens) (UniProt O14757).
T1 sequence (whole entry): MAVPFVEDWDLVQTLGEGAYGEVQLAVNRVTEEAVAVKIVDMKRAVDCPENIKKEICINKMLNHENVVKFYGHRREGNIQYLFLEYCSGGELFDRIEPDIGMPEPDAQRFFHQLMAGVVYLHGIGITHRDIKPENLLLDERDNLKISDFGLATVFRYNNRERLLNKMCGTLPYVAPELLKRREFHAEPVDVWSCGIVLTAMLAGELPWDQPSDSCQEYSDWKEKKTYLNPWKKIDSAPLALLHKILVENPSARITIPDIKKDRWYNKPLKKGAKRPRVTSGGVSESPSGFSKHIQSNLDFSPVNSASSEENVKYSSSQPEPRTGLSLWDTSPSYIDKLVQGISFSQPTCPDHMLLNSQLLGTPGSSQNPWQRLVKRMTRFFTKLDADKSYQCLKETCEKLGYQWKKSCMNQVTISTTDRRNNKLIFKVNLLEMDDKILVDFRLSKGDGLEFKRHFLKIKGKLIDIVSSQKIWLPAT
In words: Inhibition of CHK1 at 250 uM by alphascreen assay.

The target of experiment [2] is T1, Serine/threonine-protein kinase Chk1 (Homo sapiens). As to the kind of experiment: Inhibition of CHK1 at 250 uM by alphascreen assay in presence of 0.01% Triton-X100.
For experiment [3] the target is unchanged. As to the kind of experiment: Inhibition of CHK1 assessed as CDC25C peptide phosphorylation at 100 uM by DELFIA assay.
The target in experiment [4] is Cyclin-dependent kinase 1 (Homo sapiens) (UniProt P06493). In words: Inhibition of CDK1 assessed as Rb (ser780) biotinylated peptide phosphorylation at 100 uM by DELFIA assay.
Experiment [5] deals with Serine/threonine-protein kinase Chk2 (Homo sapiens, UniProt O96017).
Description: Inhibition of CHK2 assessed as CDC25C peptide phosphorylation by DELFIA assay
For a further experiment, the system named is HT-29. In words: cells. Conditions: Homo sapiens, HT-29, 96 h.
Experiment [6] in a line: Selectivity ratio of IC50 for CHK2 to IC50 for CHK1.
For experiment [7], the target named is T2, Serine/threonine-protein kinase Chk1 (Homo sapiens, UniProt O14757).
T2 sequence (O14757 whole entry): T1 sequence (whole entry)
Description: Inhibition of CHK1 assessed as CDC25C peptide phosphorylation by DELFIA assay

Chain of Serine/threonine-protein kinase Chk2 (O96017 whole entry): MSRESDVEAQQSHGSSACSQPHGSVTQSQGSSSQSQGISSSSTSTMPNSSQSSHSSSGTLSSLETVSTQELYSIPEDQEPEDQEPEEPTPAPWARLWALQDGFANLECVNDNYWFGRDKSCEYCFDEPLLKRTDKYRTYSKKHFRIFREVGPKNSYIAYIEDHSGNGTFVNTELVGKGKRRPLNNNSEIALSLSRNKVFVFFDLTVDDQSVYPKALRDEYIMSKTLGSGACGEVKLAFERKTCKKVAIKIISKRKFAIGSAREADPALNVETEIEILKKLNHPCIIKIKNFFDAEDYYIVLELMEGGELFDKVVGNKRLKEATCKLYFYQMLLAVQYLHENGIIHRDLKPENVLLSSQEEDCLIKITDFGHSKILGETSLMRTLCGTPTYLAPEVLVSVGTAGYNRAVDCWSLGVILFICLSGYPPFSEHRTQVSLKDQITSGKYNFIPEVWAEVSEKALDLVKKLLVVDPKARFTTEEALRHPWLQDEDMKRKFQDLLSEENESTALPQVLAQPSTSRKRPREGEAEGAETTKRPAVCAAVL
Chain of Cyclin-dependent kinase 1 (Homo sapiens) (P06493 whole entry, looked up): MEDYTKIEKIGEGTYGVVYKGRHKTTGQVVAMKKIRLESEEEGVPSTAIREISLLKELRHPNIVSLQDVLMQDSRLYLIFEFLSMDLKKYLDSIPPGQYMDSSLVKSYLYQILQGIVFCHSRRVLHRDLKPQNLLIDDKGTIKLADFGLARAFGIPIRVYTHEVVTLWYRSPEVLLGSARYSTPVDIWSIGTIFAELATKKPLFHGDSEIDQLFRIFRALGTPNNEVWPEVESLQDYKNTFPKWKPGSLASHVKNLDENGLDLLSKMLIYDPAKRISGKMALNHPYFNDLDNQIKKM
Description for HT-29: Cytotoxicity against human HT-29 cells after 96 hrs by SRB assay

As for `c1nc(N2CCOCC2)c2nc[nH]c2n1`, the inhibition in experiment [1] stood at 75.7%; in experiment [2], 63%.
As for `CCCNc1nc2ccccc2c(=O)[nH]1`, the inhibition worked out at 40.9% in experiment [1], 14.2% in experiment [2] and 0% in experiment [3].
Consider `NC[C@@H]1CN(c2c(-c3ccccc3)cnc3[nH]ncc23)CCO1`, for which the inhibition in experiment [4] was found to be 43%. The same compound had an IC50 in experiment [5] of 5.9 µM. The same compound returned a GI50 in the experiment on HT-29 of 40 µM.
For `CCOC(=O)c1cnc2[nH]ncc2c1N1CCOC(CN)C1` (stereo not drawn), the inhibition in experiment [4] stood at 3%.
As for `COc1cccc(CNc2ncnc3cc(OC)c(OC)cc23)c1`, the inhibition in experiment [1] came to 50.1%; in experiment [2], 52.8%.
On to `Clc1ccc2c(Nc3ccccc3)ncnc2c1`, for which the inhibition in experiment [1] turned out to be 41.9%; in experiment [2], 41.5%.
Taken in the same sequence, the figures for `Fc1ccc(-c2onc3ccc(-c4cc[nH]n4)cc23)cc1` were 26.4% and 6.5%.
`O=C(O)CC1CN(c2ncnc3[nH]cnc23)CCO1` (stereo not drawn): the inhibition in experiment [3] was determined as 22%.
In the case of `NCC1CN(c2c(Br)cnc3[nH]ncc23)CCO1` (stereo not drawn), the inhibition in experiment [4] amounted to 37%. Further, the Ratio IC50 in experiment [6] stood at 8. In addition, the IC50 in experiment [5] is 7.4 µM. In the experiment with HT-29, this compound yielded a GI50 of 16 µM.
Regarding `O=C(O)C1COCCN1c1ncnc2[nH]cnc12` (stereo not drawn), the inhibition in experiment [3] is 12%.
Consider `NCC1CN(c2c(-c3ccsc3)cnc3[nH]ncc23)CCO1` (stereo not drawn), for which the inhibition in experiment [4] stood at 48%. The Ratio IC50 in experiment [6] is 8. Moreover, the results for the IC50 in experiment [7] and in experiment [5] were 0.29 µM and 4.6 µM, respectively. In addition, in the experiment on HT-29, growth was halved (GI50) at 10.5 µM.
Regarding `CC(C)(C)OC(=O)NCC1CN(c2ncnc3[nH]cnc23)CCO1` (stereo not drawn), the inhibition in experiment [3] was 43%.
Take `CC(=O)Nc1nc2c(s1)C(=O)NCCC2`: the results for the inhibition in experiment [1], in experiment [2] and in experiment [3] were 51.4%, 43.1% and 27%, respectively.
Taken in the same sequence, the figures for `CSC1=N/C(=C\c2cccs2)C(=O)N1` were 35.7%, 33.5% and 32%.
Consider `O=c1[nH]cnc2sc3c(c12)CCCC3`, for which the inhibition came to 38.5% in experiment [1] and 45.3% in experiment [2].
For the compound `CC(C)(C)Nc1nc(N)c(C(=O)c2ccccc2)s1`, the inhibition turned out to be 36.9% in experiment [1], 39.9% in experiment [2] and 33% in experiment [3].

What is called inhibition is the percentage by which the read-out fell short of the control. For orientation: IC50 means the midpoint of a concentration-inhibition curve. A lower IC50 goes with inhibition by little substance. For orientation: GI50 means the concentration that inhibits growth by half. Lower therefore signals more potent growth inhibition.
